Here are results for 7 compounds from patent US9399644B2, “[1,3] dioxolo [4,5-G] quinoline-6(5H)thione derivatives as inhibitors of the late SV40 factor (LSF) for use in treating cancer” (TRUSTEES OF BOSTON UNIVERSITY, priority 2011, dated 2016).

The target in one assay is T1, LSF (Homo sapiens, UniProt Q12800).
T1 construct: expressed in transfected cells; host or cells: NIH 3T3 cells
T1 sequence (Q12800 1-502): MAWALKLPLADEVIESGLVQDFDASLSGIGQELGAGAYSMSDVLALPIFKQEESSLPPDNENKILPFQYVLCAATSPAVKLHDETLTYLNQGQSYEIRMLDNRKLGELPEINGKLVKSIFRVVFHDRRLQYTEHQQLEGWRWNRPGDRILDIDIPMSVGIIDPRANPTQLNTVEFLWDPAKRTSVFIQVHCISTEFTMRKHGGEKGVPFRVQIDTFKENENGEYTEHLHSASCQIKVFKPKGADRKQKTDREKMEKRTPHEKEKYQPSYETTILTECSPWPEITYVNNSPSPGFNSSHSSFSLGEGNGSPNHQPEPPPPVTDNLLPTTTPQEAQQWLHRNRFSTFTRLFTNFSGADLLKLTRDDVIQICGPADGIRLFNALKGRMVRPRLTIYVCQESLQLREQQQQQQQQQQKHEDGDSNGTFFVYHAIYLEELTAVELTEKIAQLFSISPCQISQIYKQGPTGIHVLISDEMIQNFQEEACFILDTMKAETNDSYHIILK
The experiment in a line: LSF-dependent reporter assay (dual luciferase). In kind it is cell-based. The settings on record: for LSF inhibition (result in words): NIH 3T3 cells transfected with LSF expression vector and LSF-driven firefly luciferase reporter, FIGS. 5-7. The procedure: NIH 3T3 cells were transfected with the expression construct pEF1α-LSF, an LSF expression vector^1,2; the reporter construct pGL3B-WT4E1b, a firefly luciferase reporter vector driven by LSF^3; phRL-TK, a control renilla luciferase reporter vector; and pEFGP, essentially as previously described^3. Five hours after transfection, either vehicle (DMSO) or compounds (VI, I and II, IV and V) were added (FIG. 7, FIG. 5 and FIG. 6, respectively), keeping DMSO at 0.5%. Cell extracts were harvested 36 hours post-transfection and firefly and renilla luciferase activities measured via a dual luciferase assay (Promega). Five μl of extract was mixed with 30 μl of luciferase assay reagent (Promega), and luminescence measured for 10 seconds using a 20/20n luminometer (Turner Biosystems). Subsequently, 30 μl of Stop & Glo reagent (Promega) was added, and luminescence also measured for 10 seconds. LSF transactivation activity is given as relative luciferase activity, the ratio of firefly to renilla activities, and normalized to the relative luciferase activity in the presence of vehicle alone. Data for this assay are shown in graphically in FIGS. 5-7.
(In a reporter assay the amount or activity of a reporter protein is the signal.)

In assay [1] the test system is hepatocellular carcinoma (HCC). The settings on record: single treatment; cited from earlier work.

SMILES strings stand for the structures.

For the compound `CCOc1ccccc1C1CC(=S)Nc2cc3c(cc21)OCO3` (racemic) [racemic mixture of compounds I and II, 8-(2-ethoxyphenyl)-7,8-dihydro-[1,3]dioxolo[4,5-g]quinoline-6(5H)-thione], on LSF (FIG. 5 versus FIG. 6 and FIG. 7), the “effectiveness as LSF inhibitor compared with the racemic mixture of compounds IV and V (FIG. 6) and Compound VI (FIG. 7)” value is “about 10 times”. Further, the “LSF inhibition (result in words)” value on LSF is “particularly strong LSF inhibitors”. Also, the “rank among LSF inhibitors observed by the applicants” value on LSF (experiments thus far performed by the applicants) was “strongest LSF inhibitor so far observed”. As for `CCOc1ccccc1-c1cc(=S)[nH]c2cc3c(cc12)OCO3` [Compound III, 8-(2-ethoxyphenyl)-[1,3]dioxolo[4,5-g]quinolin-6(5H)-thione], the “LSF inhibition (result in words)” value on LSF was “exhibit properties as LSF inhibitors”. Turning to `CCOc1ccccc1[C@H]1CC(=S)Nc2cc3c(cc21)OCO3` [Compound II], at LSF, the “LSF inhibition (result in words)” value is “exhibit properties as LSF inhibitors”.

In the case of `CCOc1ccccc1[C@@H]1CC(=S)Nc2cc3c(cc21)OCO3` [Compound I], on LSF, the “LSF inhibition (result in words)” value was “exhibit properties as LSF inhibitors”. For `CCOc1ccccc1[C@H]1Cc2nncn2-c2cc3c(cc21)OCO3` [Compound V], at LSF, the “LSF inhibition (result in words)” value was “exhibit properties as LSF inhibitors”. On the same count and under the same terms, the result for `CCOc1ccccc1[C@@H]1Cc2nncn2-c2cc3c(cc21)OCO3` [IV] reads “exhibit properties as LSF inhibitors”. For the compound `CNC(=O)c1cc(Oc2ccc(NC(=O)Nc3ccc(Cl)c(C(F)(F)F)c3)cc2)ccn1` [sorafenib], the increase of survival in assay [1] is 2-3 months.
